# Laboratory results published in patent US20250230138A1, “COMPOUNDS HAVING A T-STRUCTURE FORMED BY AT LEAST FOUR CYCLES FOR USE IN THE TREATMENT OF CANCER AND OTHER INDICATIONS” (TheRas, Inc., priority 2022, published 2025).
# Like-named read-outs stand apart in the source and are kept apart here.
# Experiments:
# pAKT in BT474 cells = assay: Cell-based pAKT HTRF assay in BT474 cells; details: BT474 cells, 4 hr incubation, Compounds 1000-1279, read-out: pAKT inhibition IC50 in BT474 cells
# Method in brief: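 9-pt curve, top 3 μM, 3-fold steps, 0.25% DMSO; 4 hr compound exposure. Lysis, then HTRF with d2/Eu Cryptate antibody pair, 4–24 h RT. Ex 320 nm, Em 615 nm.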
# [1] = target: Cys242 in human PIK3CA (157-299) (Homo sapiens (Human), UniProt P42336); assay: Covalent modification assay using MALDI-TOF MS; assay type: biochemical; details: 4 h reaction time point; 1 μM protein target, 1:5 protein to compound ratio (compounds 853-1279)
# Cys242 in human PIK3CA (157-299), sequence (P42336 157-299): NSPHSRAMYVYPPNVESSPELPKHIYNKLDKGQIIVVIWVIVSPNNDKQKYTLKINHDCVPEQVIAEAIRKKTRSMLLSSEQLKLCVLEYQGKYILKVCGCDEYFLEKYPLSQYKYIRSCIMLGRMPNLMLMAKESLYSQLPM
# Method in brief: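 PIK3CA (157-299) at 3.33 μM or 1 μM in 20 mM HEPES, 150 mM NaCl, 2 mM MgCl2, pH 7.3 was incubated with compound (from 10 mM DMSO stocks) in the dark at room temperature for 15 min, 30 min, 2 h or 4 h. Linear-mode MALDI-TOF peak heights gave percent modification.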
Structure (SMILES),IC50 (pAKT in BT474 cells) [nM],"IC50 (pAKT in BT474 cells; Homo sapiens, BT-474) [nM]",% of modification [1]
C=CC(=O)N1CCc2ccc(-c3nc(-c4ccc5c(c4)CNC(=O)C5)c4ccsc4c3-c3c(F)cc(F)cc3OCCOC)cc2C1 [Compound 1108],< 100,,A (percent of modification of PIK3CA protein ≥75%)
C=CC(=O)N1CCn2nc(-c3nc(-c4ccc5c(cnn5C)c4)c4ccsc4c3-c3c(F)cc(F)cc3OC)cc2C1C (centres unmarked) [Compound 1111],100 to 1000,,C (25%≤percent of modification <50%)
C=CC(=O)N1CCn2nc(-c3nc(-c4ccc5c(c4)CN(C)CC54CC4)c4ccsc4c3-c3c(F)cc(F)cc3OCCOC)cc2C1C (centres unmarked) [Compound 1113],< 100,,A (percent of modification of PIK3CA protein ≥75%)
C=CC(=O)N1CCn2nc(-c3nc(-c4ccc5c(c4)CN(C)CC54CC4)c4ccsc4c3-c3c(F)cc(F)cc3OCCO)cc2C1C (centres unmarked) [Compound 1114],< 100,,A (percent of modification of PIK3CA protein ≥75%)
C=CC(=O)N1CCn2nc(-c3nc(-c4ccc5c(cnn5C)c4)c4ccsc4c3-c3c(F)cc(F)cc3OC)cc2C1C (centres unmarked) [Compound 1115],< 100,,A (percent of modification of PIK3CA protein ≥75%)
C=CC(=O)N1CCn2nc(-c3nc(-c4ccc5c(c4)C(=O)NC5)c4ccsc4c3-c3c(F)cc(F)cc3OC)cc2C1C (centres unmarked) [Compound 1117],< 100,,A (percent of modification of PIK3CA protein ≥75%)
C=CC(=O)N1CCn2nc(-c3nc(-c4ccc5c(c4)CNC(=O)C54CC4)c4ccsc4c3-c3c(F)cc(F)cc3OCCO)cc2C1C (centres unmarked) [Compound 1119],< 100,,A (percent of modification of PIK3CA protein ≥75%)
C=CC(=O)N1CCn2nc(-c3nc(-c4ccc5c(c4)CCNC5=O)c4ccsc4c3-c3c(F)cc(F)cc3OC)cc2C1C (centres unmarked) [Compound 1120],< 100,,A (percent of modification of PIK3CA protein ≥75%)
C=CC(=O)N1CCn2nc(-c3nc(-c4ccc5c(c4)CCN(CC(F)F)CC5)c4ccsc4c3-c3c(F)cc(F)cc3OCCOC)cc2C1C (centres unmarked) [Compound 1122],< 100,,A (percent of modification of PIK3CA protein ≥75%)
C=CC(=O)N1CCn2nc(-c3nc(-c4ccc5c(cnn5C)c4)c4ccsc4c3-c3c(F)cc(F)cc3OCC(C)(C)O)cc2C1C (centres unmarked) [Compound 1125],100 to 1000,,A (percent of modification of PIK3CA protein ≥75%)
C=CC(=O)N1CCn2nc(-c3nc(-c4ccc5nn(C)cc5c4)c4ccsc4c3-c3c(F)cc(F)cc3OCC(C)(C)O)cc2[C@H]1C [Compound 1129],< 100,,A (percent of modification of PIK3CA protein ≥75%)
C=CC(=O)N1CCn2nc(-c3nc(-c4ccc5c(c4)C(=O)NC5)c4ccsc4c3-c3c(F)cc(F)cc3OCC(C)(C)O)cc2[C@H]1C [Compound 1130],< 100,,A (percent of modification of PIK3CA protein ≥75%)
C=CC(=O)N1CCn2nc(-c3nc(-c4ccc5c(cnn5C)c4)c4ccsc4c3-c3c(F)cc(F)cc3OCCOC)cc2[C@H]1C [Compound 1131],> 1000,,D (percent of modification <25%)
"C=CC(=O)N1CCn2nc(-c3nc(-c4ccc5c(c4)NC(=O)CN(C)C5)c4ccsc4c3-c3c(F)cc(F)cc3OCCOC)cc2[C@H]1C [Compound 1132, 8-((S)-6-((R)-5-acryloyl-4-methyl-4,5,6,7-tetrahydropyrazolo[1,5-a]pyrazin-2-yl)-7-(2,4-difluoro-6-(2-methoxyethoxy)phenyl)thieno[3,2-c]pyridin-4-yl)-4-methyl-1,3,4,5-tetrahydro-2H-benzo[e][1,4]diazepin-2-one]",< 100,,A (percent of modification of PIK3CA protein ≥75%)
C=CC(=O)N1CCn2nc(-c3nc(-c4ccc5c(c4)CN(C)C(=O)C54CC4)c4ccsc4c3-c3c(F)cc(F)cc3OCCO)cc2[C@H]1C [Compound 1133],< 100,,A (percent of modification of PIK3CA protein ≥75%)
C=CC(=O)N1CCn2nc(-c3nc(-c4ccc(C5(C(=O)NC)CC5)cc4)c4ccsc4c3-c3c(F)cc(F)cc3OCCOC)cc2[C@H]1C [Compound 1134],< 100,,A (percent of modification of PIK3CA protein ≥75%)
C=CC(=O)N1CCn2nc(-c3nc(-c4ccc(C5(C(=O)NC)CC5)cc4)c4ccsc4c3-c3c(F)cc(F)cc3OCCO)cc2[C@H]1C [Compound 1135],< 100,,A (percent of modification of PIK3CA protein ≥75%)

# Further lines, with some results ahead:
IC50 (pAKT in BT474 cells) [nM],"IC50 (pAKT in BT474 cells; Homo sapiens, BT-474) [nM]",Structure (SMILES),% of modification [1]
< 100,,C=CC(=O)N1CCn2nc(-c3nc(-c4ccc5c(c4)CN(C)CC5)c4ccsc4c3-c3c(F)cc(F)cc3OCCO)cc2[C@H]1C [Compound 1136],A (percent of modification of PIK3CA protein ≥75%)
< 100,,C=CC(=O)N1CCn2nc(-c3nc(-c4ccc5c(c4)CNC(=O)C5)c4ccsc4c3-c3c(F)cc(F)cc3OCC(C)(C)O)cc2C1C (centres unmarked) [Compound 1139],A (percent of modification of PIK3CA protein ≥75%)
< 100,,C=CC(=O)N1CCn2nc(-c3nc(-c4cncc(CN(C)C)c4)c4ccsc4c3-c3c(F)cc(F)cc3OCCOC)cc2C1C (centres unmarked) [Compound 1141],A (percent of modification of PIK3CA protein ≥75%)
< 100,,C=CC(=O)N1CCn2nc(-c3nc(-c4cccc(C(=O)N5CC(N(C)C)C5)c4)c4ccsc4c3-c3c(F)cc(F)cc3OCCOC)cc2C1C (centres unmarked) [Compound 1142],A (percent of modification of PIK3CA protein ≥75%)
< 100,,C=CC(=O)N1CCn2nc(-c3nc(-c4ccc5c(cnn5C)c4F)c4ccsc4c3-c3c(F)cc(F)cc3OCCOC)cc2C1C (centres unmarked) [Compound 1144],A (percent of modification of PIK3CA protein ≥75%)
,< 100,"C=CC(=O)N1CCn2nc(-c3nc(-c4cnc5c(c4)CN(C)CC5(F)F)c4ccsc4c3-c3c(F)cc(F)cc3OCCOC)cc2[C@H]1C [Compound 1152, 1-((R)-2-((S)-7-(2,4-difluoro-6-(2-methoxyethoxy)phenyl)-4-(8,8-difluoro-6-methyl-5,6,7,8-tetrahydro-1,6-naphthyridin-3-yl)thieno[3,2-c]pyridin-6-yl)-4-methyl-6,7-dihydropyrazolo[1,5-a]pyrazin-5(4H)-yl)prop-2-en-1-one]",A (percent of modification of PIK3CA protein ≥75%)
< 100,,C=CC(=O)N1CCn2nc(-c3nc(-c4ccc5c(c4)CCC5N(C)C)c4ccsc4c3-c3c(F)cc(F)cc3OCCOC)cc2C1C (centres unmarked) [Compound 1155],A (percent of modification of PIK3CA protein ≥75%)
< 100,,C=CC(=O)N1CCn2nc(-c3nc(-c4ccc5c(cnn5C)c4)c4ccsc4c3-c3c(F)cc(F)cc3OCCO)cc2C1C (centres unmarked) [Compound 1156],D (percent of modification <25%)
100 to 1000,,C=CC(=O)N1CCn2nc(-c3nc(-c4ccc(C5(C(=O)NC6CN(C)C6)CC5)cc4)c4ccsc4c3-c3c(F)cc(F)cc3OCCOC)cc2C1C (centres unmarked) [Compound 1157],A (percent of modification of PIK3CA protein ≥75%)
< 100,,C=CC(=O)N1CCn2nc(-c3nc(-c4cnc5c(c4)CN(CCCF)CC5)c4ccsc4c3-c3c(F)cc(F)cc3OCCOC)cc2C1C (centres unmarked) [Compound 1158],A (percent of modification of PIK3CA protein ≥75%)
< 100,,C=CC(=O)N1CCn2nc(-c3nc(-c4cnc5c(c4)CN(CCO)CC5)c4ccsc4c3-c3c(F)cc(F)cc3OCCOC)cc2[C@H]1C [Compound 1160],A (percent of modification of PIK3CA protein ≥75%)
< 100,,C=CC(=O)N1CCn2nc(-c3nc(-c4cnc5c(c4)CN(C)CC5(C)C)c4ccsc4c3-c3c(F)cc(F)cc3OCCOC)cc2[C@H]1C [Compound 1161],A (percent of modification of PIK3CA protein ≥75%)
< 100,,C=CC(=O)N1CCn2nc(-c3nc(-c4cc5cnn(C)c5cc4F)c4ccsc4c3-c3c(F)cc(F)cc3OCCO)cc2[C@H]1C [Compound 1162],A (percent of modification of PIK3CA protein ≥75%)
< 100,,C=CC(=O)N1CCn2nc(-c3nc(-c4cnc5c(c4)CN(C)CC54CC4)c4ccsc4c3-c3c(F)cc(F)cc3OCCOC)cc2[C@H]1C [Compound 1163],A (percent of modification of PIK3CA protein ≥75%)
< 100,,C=CC(=O)N1CCn2nc(-c3nc(-c4cc5cnn(C)c5cc4F)c4ccsc4c3-c3c(F)cc(F)cc3OCCOC)cc2[C@H]1C [Compound 1164],A (percent of modification of PIK3CA protein ≥75%)
< 100,,C=CC(=O)N1CCn2nc(-c3nc(-c4ccc5c(c4)c(F)nn5C)c4ccsc4c3-c3c(F)cc(F)cc3OCCOC)cc2[C@H]1C [Compound 1165],A (percent of modification of PIK3CA protein ≥75%)
100 to 1000,,C=CC(=O)N1CCn2nc(-c3nc(-c4ccc5c(cnn5C)c4)c4ccsc4c3-c3c(F)cc(F)cc3OCCO)cc2[C@@H]1C [Compound 1166],D (percent of modification <25%)
